# How the values were obtained:
# Acetylcholinesterase = biological target: T1, Acetylcholinesterase (Rattus norvegicus, UniProt P37136); test: Inhibitory activity against acetylcholinesterase (AChE) from rat brain was determined
# T1 sequence (P37136 whole entry): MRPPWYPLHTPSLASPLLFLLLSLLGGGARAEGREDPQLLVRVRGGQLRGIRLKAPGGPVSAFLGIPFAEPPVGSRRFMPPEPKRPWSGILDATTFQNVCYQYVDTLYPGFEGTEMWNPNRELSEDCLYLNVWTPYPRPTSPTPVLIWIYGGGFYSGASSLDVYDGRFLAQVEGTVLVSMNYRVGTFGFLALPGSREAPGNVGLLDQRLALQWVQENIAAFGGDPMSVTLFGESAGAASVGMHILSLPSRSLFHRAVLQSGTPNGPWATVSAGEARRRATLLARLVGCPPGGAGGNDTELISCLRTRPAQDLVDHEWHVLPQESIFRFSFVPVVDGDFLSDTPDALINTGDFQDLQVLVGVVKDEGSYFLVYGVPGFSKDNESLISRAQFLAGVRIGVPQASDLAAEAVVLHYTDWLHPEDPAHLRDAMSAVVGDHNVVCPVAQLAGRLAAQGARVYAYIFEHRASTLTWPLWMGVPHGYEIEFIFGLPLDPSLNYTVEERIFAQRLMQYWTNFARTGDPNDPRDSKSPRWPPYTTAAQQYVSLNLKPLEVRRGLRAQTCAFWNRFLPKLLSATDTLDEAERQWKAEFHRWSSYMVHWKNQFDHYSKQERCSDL
# Cavia porcellus = organism: Cavia porcellus; test: In vitro gastrointestinal motility enhancing activity expressed as concentration of compound producing 30% potentiation of contractions induced by electrical stimulation in guinea pig; format: functional
SMILES,IC50 (Acetylcholinesterase),EC30 (Cavia porcellus)
N#CC(C#N)=C1NCCN1CCNCc1ccc(CN2CCCCC2)o1,30 nM,16 nM
COc1ccccc1N1CCN(CCNCc2ccc(CN3CCCCC3)o2)C1=C(C#N)C#N,66 nM,490 nM
COc1cccc(N2CCN(CCNCc3ccc(CN4CCCCC4)o3)C2=C(C#N)C#N)c1,14 nM,14 nM
Cc1cccc(N2CCN(CCNCc3ccc(CN4CCCCC4)o3)C2=C(C#N)C#N)c1,13 nM,19 nM
COc1ccc(N2CCN(CCNCc3ccc(CN4CCCCC4)o3)C2=C(C#N)C#N)cc1,19 nM,12 nM
Cc1ccc(N2CCN(CCNCc3ccc(CN4CCCCC4)o3)C2=C(C#N)C#N)cc1,2.2 nM,52 nM
N#CC(C#N)=C1N(CCNCc2ccc(CN3CCCCC3)o2)CCN1c1ccccc1,14 nM,10 nM

# — ChEMBL document CHEMBL1127253, “Synthesis and in vitro gastrointestinal motility enhancing activity of 3-aryl-2-imidazolidinylidene propanedinitrile derivatives” (Bioorg Med Chem Lett, 1994)
